According to ChEMBL document CHEMBL4673302, “Efficient synthesis and antitumor evaluation of 4-aminomethyl-N-arylpyrazoles: Discovery of potent and selective agents for ovarian cancer” (Bioorg Med Chem, 2021):

How the values were obtained:
U-251 = experiment: Anticancer activity against human U-251 cells assessed as cell growth inhibition measured after 48 hrs by sulforhodamine B assay; assay type: functional
MCF7 = experiment: Anticancer activity against human MCF7 cells assessed as cell growth inhibition measured after 48 hrs by sulforhodamine B assay; assay type: functional
786-0 = experiment: Anticancer activity against human 786-0 cells assessed as cell growth inhibition measured after 48 hrs by sulforhodamine B assay; assay type: functional
NCI-H460 = experiment: Anticancer activity against human NCI-H460 cells assessed as cell growth inhibition measured after 48 hrs by sulforhodamine B assay; assay type: functional
PC-3 = experiment: Anticancer activity against human PC-3 cells assessed as cell growth inhibition measured after 48 hrs by sulforhodamine B assay; assay type: functional
OVCAR-3 = experiment: Anticancer activity against human OVCAR-3 cells assessed as cell growth inhibition measured after 48 hrs by sulforhodamine B assay; assay type: functional; settings: 48 h
HT-29 = experiment: Anticancer activity against human HT-29 cells assessed as cell growth inhibition measured after 48 hrs by sulforhodamine B assay; assay type: functional
K562 = experiment: Anticancer activity against human K562 cells assessed as cell growth inhibition measured after 48 hrs by sulforhodamine B assay; assay type: functional; settings: 48 h
HaCaT = experiment: Cytotoxicity against human HaCaT cells assessed as cell growth inhibition measured after 48 hrs by sulforhodamine B assay; assay type: cell-based; settings: hacat, 48 h

Row | SMILES | GI50 (U-251; 48 h) | GI50 (MCF7; 48 h) | GI50 (786-0; 48 h) | GI50 (NCI-H460; 48 h) | GI50 (PC-3; 48 h) | GI50 (OVCAR-3) | GI50 (HT-29; 48 h) | GI50 (K562) | GI50 (HT-29; Homo sapiens, HT-29, 48 h) | GI50 (U-251; Homo sapiens, U-251, 48 h) | GI50 (MCF7; Homo sapiens, MCF7, 48 h) | GI50 (786-0; Homo sapiens, 786-0, 48 h) | GI50 (PC-3; Homo sapiens, PC-3, 48 h) | GI50 (NCI-H460; Homo sapiens, NCI-H460, 48 h) | GI50 (HaCaT)
1 | CCOC(=O)c1nn(-c2ccc(Cl)cc2)c(-c2ccc(C)cc2)c1CNC(C)(C)C [listing 1 of 2 here] | > 542 µM | > 542 µM | > 542 µM | > 542 µM | > 542 µM | > 542 µM | > 542 µM | > 542 µM | – | – | – | – | – | – | > 542 µM
2 | CCOC(=O)c1nn(-c2ccccc2)c(-c2ccc(Cl)cc2)c1CNC(C)(C)C [listing 1 of 2 here] | 73.8 µM | 72.4 µM | 86.7 µM | 69.2 µM | 28.6 µM | 0.134 µM | 58.5 µM | 57.6 µM | – | – | – | – | – | – | 63.5 µM
3 | CCOC(=O)c1nn(-c2ccccc2)c(-c2ccc(Br)cc2)c1CNC(C)(C)C [listing 1 of 2 here] | 71.9 µM | 74.2 µM | 83.9 µM | 118 µM | 15.9 µM | 2.91 µM | 21.8 µM | 22 µM | – | – | – | – | – | – | 61.7 µM
4 | CCOC(=O)c1nn(-c2ccccc2)c(-c2ccccc2)c1CNC(C)(C)C [listing 1 of 2 here] | 81.5 µM | 81.7 µM | 144 µM | 76.9 µM | 39.9 µM | 1.01 µM | – | 9.62 µM | 69.6 µM | – | – | – | – | – | 77 µM
5 | CCOC(=O)c1nn(-c2ccc(Cl)cc2)c(-c2ccc(Cl)cc2)c1CNC(C)(C)C [listing 2 of 2 here] | > 520 µM | > 520 µM | > 520 µM | > 520 µM | > 520 µM | > 520 µM | > 520 µM | > 520 µM | – | – | – | – | – | – | > 520 µM
6 | CCOC(=O)c1nn(-c2ccc(Cl)cc2)c(-c2ccc(F)cc2)c1CNC(C)(C)C [listing 2 of 2 here] | – | – | – | – | – | 159 µM | 87.1 µM | 78.5 µM | – | 519 µM | > 582 µM | > 582 µM | 405 µM | 344 µM | 24.7 µM
7 | CCOC(=O)c1nn(-c2ccccc2)c(-c2ccc(OC)cc2)c1CNC(C)(C)C [listing 1 of 2 here] | 527 µM | 244 µM | 166 µM | 148 µM | 245 µM | 17.1 µM | 44.2 µM | 29.8 µM | – | – | – | – | – | – | 19.2 µM
8 | CCOC(=O)c1nn(-c2ccccc2)c(-c2ccc([N+](=O)[O-])cc2)c1CNC(C)(C)C | > 546 µM | 168 µM | > 546 µM | 327 µM | 128 µM | 288 µM | 35.1 µM | 191 µM | – | – | – | – | – | – | 130 µM
9 | CCOC(=O)c1nn(-c2ccc(Cl)cc2)c(-c2ccc(OC)cc2)c1CNC(C)(C)C [listing 2 of 2 here] | – | 238 µM | 119 µM | 27 µM | 210 µM | 35.4 µM | 45.3 µM | 6.1 µM | – | 431 µM | – | – | – | – | 60.1 µM
10 | CCOC(=O)c1nn(-c2ccccc2)c(-c2ccc(Br)cc2)c1CNC(C)(C)C [listing 2 of 2 here] | > 509 µM | > 509 µM | > 509 µM | > 509 µM | > 509 µM | > 509 µM | > 509 µM | > 509 µM | – | – | – | – | – | – | > 509 µM
11 | CCOC(=O)c1nn(-c2ccccc2)c(-c2ccc(C)cc2)c1CNC(C)(C)C [listing 1 of 2 here] | 65.4 µM | 78.2 µM | 86.1 µM | 75.2 µM | 59.9 µM | 0.054 µM | 68.1 µM | 11.3 µM | – | – | – | – | – | – | 72.1 µM
12 | CCOC(=O)c1nn(-c2ccccc2)c(-c2ccc(Cl)cc2)c1CNC(C)(C)C [listing 2 of 2 here] | > 559 µM | > 559 µM | > 559 µM | > 559 µM | > 559 µM | > 559 µM | > 559 µM | > 559 µM | – | – | – | – | – | – | > 559 µM
13 | CCOC(=O)c1nn(-c2ccccc2)c(-c2ccc(OC)cc2)c1CNC(C)(C)C [listing 2 of 2 here] | 134 µM | 116 µM | 537 µM | – | 530 µM | 0.047 µM | – | 66.6 µM | 61.3 µM | – | – | – | – | 119 µM | 68.3 µM
14 | CCOC(=O)c1nn(-c2ccc(Cl)cc2)c(-c2ccccc2)c1CNC(C)(C)C | > 559 µM | > 559 µM | > 559 µM | > 559 µM | > 559 µM | > 559 µM | > 559 µM | > 559 µM | – | – | – | – | – | – | > 559 µM
15 | CCOC(=O)c1nn(-c2ccc(Cl)cc2)c(-c2ccc(Br)cc2)c1CNC(C)(C)C | > 476 µM | > 476 µM | > 476 µM | > 476 µM | > 476 µM | > 476 µM | > 476 µM | > 476 µM | – | – | – | – | – | – | > 476 µM
16 | CCOC(=O)c1nn(-c2ccccc2)c(-c2ccc(C)cc2)c1CNC(C)(C)C [listing 2 of 2 here] | > 585 µM | > 585 µM | > 585 µM | > 585 µM | > 585 µM | > 585 µM | > 585 µM | > 585 µM | – | – | – | – | – | – | > 585 µM
17 | CCOC(=O)c1nn(-c2ccc(Cl)cc2)c(-c2ccc(C)cc2)c1CNC(C)(C)C [listing 2 of 2 here] | 151 µM | 141 µM | – | – | 249 µM | 49.2 µM | 106 µM | 106 µM | – | – | – | > 588 µM | – | 277 µM | 144 µM

Second part, led by results:

Row | GI50 (U-251; 48 h) | GI50 (MCF7; 48 h) | GI50 (786-0; 48 h) | GI50 (NCI-H460; 48 h) | GI50 (PC-3; 48 h) | GI50 (OVCAR-3) | GI50 (HT-29; 48 h) | GI50 (K562) | GI50 (HT-29; Homo sapiens, HT-29, 48 h) | GI50 (U-251; Homo sapiens, U-251, 48 h) | GI50 (MCF7; Homo sapiens, MCF7, 48 h) | GI50 (786-0; Homo sapiens, 786-0, 48 h) | GI50 (PC-3; Homo sapiens, PC-3, 48 h) | GI50 (NCI-H460; Homo sapiens, NCI-H460, 48 h) | SMILES | GI50 (HaCaT)
18 | 340 µM | 205 µM | 51.2 µM | 52.8 µM | 304 µM | 16.1 µM | 40.8 µM | 14.8 µM | – | – | – | – | – | – | CCOC(=O)c1nn(-c2ccc(Cl)cc2)c(-c2ccc([N+](=O)[O-])cc2)c1CNC(C)(C)C | 145 µM
19 | 6.4 µM | 120 µM | 73.7 µM | 144 µM | 196 µM | 21.6 µM | 57.7 µM | 11.2 µM | – | – | – | – | – | – | CCOC(=O)c1nn(-c2ccc(Cl)cc2)c(-c2ccc(Cl)cc2)c1CNC(C)(C)C [listing 1 of 2 here] | 2.9 µM
20 | > 524 µM | > 524 µM | > 524 µM | > 524 µM | > 524 µM | > 524 µM | > 524 µM | > 524 µM | – | – | – | – | – | – | CCOC(=O)c1nn(-c2ccc(Cl)cc2)c(-c2ccc(OC)cc2)c1CNC(C)(C)C [listing 1 of 2 here] | > 524 µM
21 | 440 µM | 504 µM | 42.4 µM | 195 µM | 91.7 µM | 195 µM | 94.6 µM | 113 µM | – | – | – | – | – | – | CCOC(=O)c1nn(-c2ccccc2)c(-c2ccccc2)c1CNC(C)(C)C [listing 2 of 2 here] | 13.3 µM
22 | – | – | – | 365 µM | – | 0.013 µM | 65.4 µM | 75.7 µM | – | > 632 µM | 306 µM | > 632 µM | 69.3 µM | – | CCOC(=O)c1nn(-c2ccccc2)c(-c2ccc(F)cc2)c1CNC(C)(C)C [listing 1 of 2 here] | 74.5 µM
23 | > 538 µM | > 538 µM | > 538 µM | > 538 µM | > 538 µM | > 538 µM | > 538 µM | > 538 µM | – | – | – | – | – | – | CCOC(=O)c1nn(-c2ccc(Cl)cc2)c(-c2ccc(F)cc2)c1CNC(C)(C)C [listing 1 of 2 here] | > 538 µM
24 | > 580 µM | 517 µM | 319 µM | 179 µM | 82.1 µM | 92.1 µM | 29.9 µM | 161 µM | – | – | – | – | – | – | CCOC(=O)c1nn(-c2ccccc2)c(-c2ccc(F)cc2)c1CNC(C)(C)C [listing 2 of 2 here] | 32.9 µM
